Test results: article PMC7070575, “Novel Blood–Brain Barrier Shuttle Peptides Discovered through the Phage Display Method” (Molecules, 2020)
Ends that are not written are not given here.

Columns and labels:
[1] = system: primary rat in vitro BBB model (primary rat endothelial cells co-cultured with primary rat glial cells); conditions: for permeability coefficient (Pe) through in vitro BBB: pH 7.4
Description: (§1) The permeability of peptides was assessed using a primary rat in vitro BBB model. […] Transendothelial electrical resistance (TEER) measurements were used to measure the resistance of tight junctions in our BBB model. For our experiments, we used only inserts with the TEER value ≥320 ± 20 Ώ cm^−2 that corresponded to an intact in vitro BBB model. Alternatively, the integrity of the in vitro rat BBB model was assessed by measuring the permeability of the paracellular compound Lucifer Yellow (LY). Lucifer Yellow was added to the well with the peptides.
(§2) To test the permeability of selected peptides across in vitro BBB model, peptide transport to the abluminal compartment was quantified by ultra-high-performance liquid chromatography/mass spectrometry (UHPLC–MS/MS) method.
(§3) As a negative control, we performed the permeability experiments with N–C reversed sequence peptides: [sequence] and [sequence].
(§4) To test the effect of temperature on the transport of peptides across BBB, endothelial cells were incubated with peptides at 4°C to reduce cell metabolism which slows down endocytosis.
(§5) Briefly, 4 Sprague–Dawley rats (200–250 g, 6 months old) were euthanized, and the whole brains were removed. Under sterile conditions, the brainstem and cerebellum were dissected, and the midbrain, white matter, and choroid plexus were removed. The remaining cortical tissue was cleaned from meninges on dry Whatman paper. The tissue was homogenized on ice in DMEM-F12 (PAA laboratories GmbH, Germany). The brain homogenate was centrifuged at 800× g for 10 min at 4 °C. The supernatant was aspirated, and the pellet was resuspended in pre-warmed digestion mix containing collagenase/dispase (Roche Diagnostics, Indianapolis, IN, USA) and DNase I (Sigma–Aldrich, St. Louis, MO, USA). The tissue was incubated with a prepared digestion mix at 37 °C for 30 min with gentle shaking. Digested tissue was centrifuged at 800× g for 10 min at 4 °C, and the pellet was resuspended in 20% bovine serum albumin (BSA, Sigma–Aldrich, St. Louis, MO). The tissue was centrifuged at 1500× g for 15 min at 4 °C to obtain pellet containing microvessels with a fraction of myelin and BSA on the top, which was centrifuged again. The microvessels were pooled and resuspended in pre-warmed digestion mix and digested for 15 min at 37 °C. The microvessels pellet was again centrifuged at 800× g for 10 min at 4 °C and washed with culture medium containing the serum. The microvessels were cultured in DMEM-F12 medium (PAA Laboratories GmbH, Germany) containing 15% plasma-derived serum (PDS) (First Link, UK), 2 mM L-glutamine (GE Healthcare, UK), BME vitamins (Sigma–Aldrich, St. Louis, MO), heparin (Sigma–Aldrich, St. Louis, MO) and 3 µM puromycine (Sigma–Aldrich, St. Louis, MO). After 7 days, cells were seeded on the upper chamber (apical compartment) of Transwell insert with a 0.4 µm pore size (Becton Dickinson, New Jersey, USA) pre-coated with 10 µg/cm^2 collagen type IV (Sigma–Aldrich, St. Louis, MO) and 5 µg/cm^2 fibronectin (Sigma–Aldrich, St. Louis, MO).

[2] = system: primary rat in vitro BBB model; assay: Permeability of endothelium to Lucifer Yellow (BBB integrity); type: in vitro ADME; conditions: 10 µM Lucifer Yellow apical, added with the peptides; Ringer-HEPES pH 7.4; 37 °C; 5-60 min; fluorescence 428/536 nm
Description: All incubations were performed at 37 °C.

in vitro = conditions: Sprague-Dawley, rat, pH 7.4
Description: as §1, §2, §3, §4, §5

Row | Substance | permeability at 4 °C (37 °C: 100%) [1] [%] | permeability reduced at 4 °C [1] [%] | permeability coefficient (Pe) through in vitro BBB [1] [×10⁻⁶ cm/s] | endothelial permeability coefficient (Pe) of LY [2] | Papp A→B (in vitro) [×10⁻⁶ cm/s]
1 | GLHTSATNLYLH | 79 | 20.5 | 0.33 | – | –
2 | HLYLNTASTHLG | – | – | 0.75 | – | –
3 | Lucifer Yellow | – | – | – | around 11 × 10^−6 cm/s | –
4 | VAARTGEIYVPW | 69 | 30.5 | – | – | 1.5
5 | WPVYIEGTRAAV | – | – | – | – | 0.5
